In patent publication US20230391772A1, “METHODS AND COMPOSITIONS FOR TARGETED PROTEIN DEGRADATION” (Ranok Therapeutics (Hangzhou) Co. Ltd., priority 2020, published 2023):

What was measured:
[1] = tested on: MIA PaCa-2 human pancreatic carcinoma; test: MIA PaCa-2 CCK-8 proliferation assay; format: cell-based; details: Homo sapiens, MIA PaCa-2, 72 h, MIA PaCa-2 cells
Summary of the method: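 Three KRAS(G12C) lines are used, MIA PaCa-2 at two mutant copies and the NSCLC lines NCI-H358 and NCI-H23 at one. Each compound is titrated 3-fold from 20 μM to 1.02 nM, and proliferation is scored by CCK-8.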

[2] = biological target: KRAS(G12C) (Homo sapiens, UniProt P01116, G12C); test: KRAS(G12C)/SOS1 homogeneous time-resolved fluorescence (HTRF) assay; design: purchased Cisbio 63ADK000CB16PEG; details: absence of GTP, 4° C. for 3 hr, read-out: KRAS (G12C) binding
Summary of the method: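 Three-hour incubation at 4 °C of 3-fold compound dilutions (lowest 1.02 nM) with KRAS(G12C), SOS1 and detection reagents, GTP absent. Disruption of the KRAS(G12C)/SOS1 complex detected by time-resolved fluorescence.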

[3] = biological target: T1, HSP90a protein (Homo sapiens, UniProt P07900); test: HSP90α-binding fluorescent polarization (FP) assay, BODIPY-labeled RNK04010 probe; details: FP competition with RNK04010 (BODIPY-labeled), 5 nM, 300 min at 25° C.
T1 construct: purchased BPS Bioscience 50298
Summary of the method: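 Compounds (20 μM down to 5.2 nM, 2.5-fold steps) compete with a 5 nM fluorescent tracer for N-terminal HSP90a, measured by fluorescence polarization. With FITC-geldanamycin, plates sit 120 min at 25 °C. With BODIPY-RNK04010, they sit 300 min at 25 °C.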

Chain of KRAS(G12C) (P01116 1-188 isoform P01116-2 G12C): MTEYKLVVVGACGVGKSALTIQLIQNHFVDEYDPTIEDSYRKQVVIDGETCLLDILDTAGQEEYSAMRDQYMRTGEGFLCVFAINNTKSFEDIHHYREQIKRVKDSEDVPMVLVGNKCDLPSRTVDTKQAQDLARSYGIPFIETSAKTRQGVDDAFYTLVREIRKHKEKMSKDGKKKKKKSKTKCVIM

EC50 [1] [nM] | IC50 [2] [nM] | IC50 [3] [nM] | Compound
100 to 1000 | < 100 | < 100 | C=CC(=O)N1CCN(c2nc(OC[C@@H]3C[C@H](N4CCC(C(=O)N5CCN(Cc6ccc(-n7c(O)nnc7-c7cc(C)c(O)cc7O)cc6)CC5)CC4)CN3C)nc3c2CCN(c2cccc4cccc(Cl)c24)C3)C[C@@H]1CC#N [Compound 321, 2-[(2S)-4-[7-(8-chloronaphthalen-1-yl)-2-{[(2S,4S)-4-{4-[4-({4-[3-(2,4-dihydroxy-5-methylphenyl)-5-hydroxy-1,2,4-triazol-4-yl]phenyl}methyl)piperazine-1-carbonyl]piperidin-1-yl}-1-methylpyrrolidin-2-yl]methoxy}-5H,6H,8H-pyrido[3,4d]-pyrimidin-4-yl]-1-(prop-2-enoyl)piperazin-2-yl]acetonitrile]
100 to 1000 | 100 to 1000 | < 100 | C=CC(=O)N1CCN(c2nc(OC[C@@H]3C[C@@H](NC(=O)C4CCN(Cc5ccc(-n6c(O)nnc6-c6cc(C)c(O)cc6O)cc5)CC4)CN3C)nc3c2CCN(c2cccc4cccc(Cl)c24)C3)C[C@@H]1CC#N [Compound 198, N-((3R,5S)-5-(((4-((S)-4-acryloyl-3-(cyanomethyl)piperazin-1-yl)-7-(8-chloronaphthalen-1-yl)-5,6,7,8-tetrahydropyrido[3,4-d]pyrimidin-2-yl)oxy)methyl)-1-methylpyrrolidin-3-yl)-1-(4-(3-(2,4-dihydroxy-5-methylphenyl)-5-hydroxy-4H-1,2,4-triazol-4-yl)benzyl)piperidine-4-carboxamide, trifluoroacetic acid]
> 1000 | > 1000 | < 100 | C=CC(=O)N1CCN(c2nc(OC[C@@H]3CCN3C(=O)C3CCN(Cc4ccc(-n5c(O)nnc5-c5cc(C(C)C)c(O)cc5O)cc4)CC3)nc3c2CCN(c2cccc4cccc(Cl)c24)C3)C[C@@H]1CC#N [Compound 189, 2-((S)-1-acryloyl-4-(7-(8-chloronaphthalen-1-yl)-2-(((S)-1-(1-(4-(3-(2,4-dihydroxy-5-isopropylphenyl)-5-hydroxy-4H-1,2,4-triazol-4-yl)benzyl)piperidine-4-carbonyl)azetidin-2-yl)methoxy)-5,6,7,8-tetrahydropyrido[3,4-d]pyrimidin-4-yl)piperazin-2-yl)acetonitrile, trifluoroacetic acid]
> 1000 | 100 to 1000 | < 100 | C=CC(=O)N1CCN(c2nc(OC[C@@H]3C[C@@H](NC(=O)C4CCN(Cc5ccc(-n6c(C(=O)NCCN7CCN(C)CC7)nnc6-c6cc(C(C)C)c(O)cc6O)cc5)CC4)CN3C)nc3c2CCN(c2cccc4cccc(Cl)c24)C3)C[C@@H]1CC#N [Compound 201, N-((3R,5S)-5-(((4-((S)-4-acryloyl-3-(cyanomethyl)piperazin-1-yl)-7-(8-chloronaphthalen-1-yl)-5,6,7,8-tetrahydropyrido[3,4-d]pyrimidin-2-yl)oxy)methyl)-1-methylpyrrolidin-3-yl)-1-(4-(3-(2,4-dihydroxy-5-isopropylphenyl)-5-((2-(4-methylpiperazin-1-yl)ethyl)carbamoyl)-4H-1,2,4-triazol-4-yl)benzyl)piperidine-4-carboxamide]
100 to 1000 | < 100 | < 100 | C=CC(=O)N1CCN(c2nc(OC[C@@H]3C[C@H](NC(=O)C4CCN(Cc5ccc(-n6c(O)nnc6-c6cc(C(C)C)c(O)cc6O)cc5)CC4)CN3C)nc3c2CCN(c2cccc4cccc(Cl)c24)C3)C[C@@H]1CC#N [Compound 214, N-((3S,5S)-5-(((4-((S)-4-acryloyl-3-(cyanomethyl)piperazin-1-yl)-7-(8-chloronaphthalen-1-yl)-5,6,7,8-tetrahydropyrido[3,4-d]pyrimidin-2-yl)oxy)methyl)-1-methylpyrrolidin-3-yl)-1-(4-(3-(2,4-dihydroxy-5-isopropylphenyl)-5-hydroxy-4H-1,2,4-triazol-4-yl)benzyl)piperidine-4-carboxamide]

The remaining lines, values behind:

Compound | EC50 [1] [nM] | IC50 [2] [nM] | IC50 [3] [nM]
C=CC(=O)N1CCN(c2nc(OC[C@@H]3C[C@@H](OCC(=O)NCc4ccc(-n5c(O)nnc5-c5cc(C(C)C)c(O)cc5O)cc4)CN3C)nc3c2CCN(c2cccc4cccc(Cl)c24)C3)C[C@@H]1CC#N [Compound 302, 2-(((3R,5S)-5-(((4-((S)-4-acryloyl-3-(cyanomethyl)piperazin-1-yl)-7-(8-chloronaphthalen-1-yl)-5,6,7,8-tetrahydropyrido[3,4-d]pyrimidin-2-yl)oxy)methyl)-1-methylpyrrolidin-3-yl)oxy)-N-(4-(3-(2,4-dihydroxy-5-isopropylphenyl)-5-hydroxy-4H-1,2,4-triazol-4-yl)benzyl)acetamide] | 100 to 1000 | 100 to 1000 | < 100
C=CC(=O)N1CCN(c2nc(OCC3CN(C(=O)c4ccc(-n5c(O)nnc5-c5cc(C(C)C)c(O)cc5O)cc4)C3)nc3c2CCN(c2cccc4cccc(Cl)c24)C3)C[C@@H]1CC#N [Compound 221, (S)-2-(1-acryloyl-4-(7-(8-chloronaphthalen-1-yl)-2-((1-(4-(3-(2,4-dihydroxy-5-isopropylphenyl)-5-hydroxy-4H-1,2,4-triazol-4-yl)benzoyl)azetidin-3-yl)methoxy)-5,6,7,8-tetrahydropyrido[3,4-d]pyrimidin-4-yl)piperazin-2-yl)acetonitrile] | > 1000 | > 1000 | < 100
CCC(=O)N1CCN(c2nc(OCCN3CCN(C(=O)C4CCN(Cc5ccc(-n6c(C(=O)NCC(F)(F)F)nnc6-c6cc(C(C)C)c(O)cc6O)cc5)CC4)CC3)nc3c2CCN(c2cccc4cccc(Cl)c24)C3)C[C@@H]1CC#N [Compound 208, (S)-4-(4-((4-(4-(2-((7-(8-chloronaphthalen-1-yl)-4-(3-(cyanomethyl)-4-propionylpiperazin-1-yl)-5,6,7,8-tetrahydropyrido[3,4-d]pyrimidin-2-yl)oxy)ethyl)piperazine-1-carbonyl)piperidin-1-yl)methyl)phenyl)-5-(2,4-dihydroxy-5-isopropylphenyl)-N-(2,2,2-trifluoroethyl)-4H-1,2,4-triazole-3-carboxamide] | < 100 | > 1000 | < 100
C=CC(=O)N1CCN(c2nc(OC[C@@H]3CC[C@H](C(=O)N4CCN(C(=O)c5ccc(-n6c(C(=O)NCC(F)(F)F)nnc6-c6cc(C(C)C)c(O)cc6O)cc5)CC4)N3C)nc3c2CCN(c2cccc4cccc(Cl)c24)C3)C[C@@H]1CC#N [Compound 331, 4-(4-{4-[(2R,5S)-5-({[7-(8-chloronaphthalen-1-yl)-4-[(3S)-3-(cyanomethyl)-4-(prop-2-enoyl)piperazin-1-yl]-5H,6H,8H-pyrido[3,4-d]pyrimidin-2-yl]oxy}methyl)-1-methylpyrrolidine-2-carbonyl]piperazine-1-carbonyl}phenyl)-5-(2,4-dihydroxy-5-isopropylphenyl)-N-(2,2,2-trifluoroethyl)-1,2,4-triazole-3-carboxamide] | < 100 | < 100 | < 100
C=CC(=O)N1CCN(c2nc(OC[C@@H]3C[C@H](N4CCC(C(=O)NCCOCCOc5ccc(-n6c(O)nnc6-c6cc(CC)c(O)cc6O)cc5)CC4)CN3C)nc3c2CCN(c2cccc4cccc(Cl)c24)C3)C[C@@H]1CC#N [Compound 335, 1-[(3S,5S)-5-({[7-(8-chloronaphthalen-1-yl)-4-[(3S)-3-(cyanomethyl)-4-(prop-2-enoyl)piperazin-1-yl]-5H,6H,8H-pyrido[3,4-d]pyrimidin-2-yl]oxy}methyl)-1-methylpyrrolidin-3-yl]-N-[2-(2-{4-[3-(5-ethyl-2,4-dihydroxyphenyl)-5-hydroxy-1,2,4-tri-azol-4-yl]phenoxy}ethoxy)ethyl]piperidine-4-carboxamide] | > 1000 | < 100 | < 100
C=CC(=O)N1CCN(c2nc(OCCN3CCN(Cc4cc(C(C)C)c(O)cc4O)CC3)nc3c2CCN(c2cccc4cccc(Cl)c24)C3)C[C@@H]1CC#N [Compound 216, (S)-2-(1-acryloyl-4-(7-(8-chloronaphthalen-1-yl)-2-(2-(4-(2,4-dihydroxy-5-isopropylbenzyl)piperazin-1-yl)ethoxy)-5,6,7,8-tetrahydropyrido[3,4-d]pyrimidin-4-yl)piperazin-2-yl)acetonitrile] | 100 to 1000 | < 100 | 100 to 1000
C=CC(=O)N1CCN(c2nc(OCCN3CCC4(CC3)CCN(C(=O)C3CCN(Cc5ccc(-n6c(C(N)=O)nnc6-c6cc(C(C)C)c(O)cc6O)cc5)CC3)CC4)nc3c2CCN(c2cccc4cccc(Cl)c24)C3)C[C@@H]1CC#N [Compound 210, (S)-4-(4-((4-(9-(2-((4-(4-acryloyl-3-(cyanomethyl)piperazin-1-yl)-7-(8-chloronaphthalen-1-yl)-5,6,7,8-tetrahydropyrido[3,4-d]pyrimidin-2-yl)oxy)ethyl)-3,9-diazaspiro[5.5]undecane-3-carbonyl)piperidin-1-yl)methyl)phenyl)-5-(2,4-dihydroxy-5-isopropylphenyl)-4H-1,2,4-triazole-3-carboxamide] | < 100 | < 100 | < 100
